How the values were obtained:
Experiment in all cases: Viable cell count after culture in supplemented BL broth
Assay type in all cases: cell-based
Conditions in all cases: Exp. Ex. 1 carbon source; 2 parts by weight in 100 parts BL broth; 20 hours; pH about 5.0 to 6.5
[1] = test system: Bifidobacterium bifidum CBT-BF3 (KCTC 12199BP)
Protocol: (§1) To promote the growth of non-specific various types of lactic acid bacteria, an optimal mixture composition was determined by culturing each of the following strains using each component, ratio and composition and measuring the viable cell count of each of the strains: Lactobacillus casei CBT-LC5 (accession number: KCTC 12398BP), Lactobacillus plantarum CBT-LP3 (accession number: KCTC 10782BP), Lactobacillus rhamnosus CBT-LR5 (accession number: KCTC 12202BP), Bifidobacterium longum CBT-BG7 (accession number: KCTC 12200BP), Bifidobacterium lactis CBT-BL3 (accession number: KCTC 11904BP), Bifidobacterium bifidum CBT-BF3 (accession number: KCTC 12199BP), Streptococcus thermophilus CBT-ST3 (accession number: KCTC 11870BP), and Pediococcus pentosaceus CBT-SL4 (accession number: KCTC 10297BP). Starter cultures were prepared using BL broth.
(§2) 0.1 to 1 part by weight of each of the starter cultures was inoculated into 100 parts by weight of each prepared medium, and then cultured for 20 hours while the pH was maintained at about 5.0 to 6.5. […] Thus, glucose or fructooligosaccharide was selected as a carbon source for a subsequent experiment (Table 2). […]
(§3) 0.1 to 1 part by weight of each starter culture was inoculated into 100 parts by weight of each of the prepared media, and then cultured for 20 hours while the pH was maintained at about 5.0 to 6.5. […]

[2] = test system: Bifidobacterium lactis CBT-BL3 (KCTC 11904BP)
Protocol: as §1, §2, §3

[3] = test system: Bifidobacterium longum CBT-BG7 (KCTC 12200BP)
Protocol: as §1, §2, §3

[4] = test system: Lactobacillus casei CBT-LC5 (KCTC 12398BP)
Protocol: as §1, §2, §3

[5] = test system: Lactobacillus plantarum CBT-LP3 (KCTC 10782BP)
Protocol: as §1, §2, §3

[6] = test system: Lactobacillus rhamnosus CBT-LR5 (KCTC 12202BP)
Protocol: as §1, §2, §3

[7] = test system: Pediococcus pentosaceus CBT-SL4 (KCTC 10297BP)
Protocol: as §1, §2, §3

[8] = test system: Streptococcus thermophilus CBT-ST3 (KCTC 11870BP)
Protocol: as §1, §2, §3

Structure (SMILES): OC[C@H]1O[C@@](CO)(O[C@H]2O[C@H](CO)[C@@H](O)[C@H](O)[C@H]2O)[C@@H](O)[C@@H]1O [Refined sugar]
- viable cell count [1]: 325 ×10^7 cfu/ml
- viable cell count [2]: 472 ×10^7 cfu/ml
- viable cell count [3]: 464 ×10^7 cfu/ml
- viable cell count [4]: 482 ×10^7 cfu/ml
- viable cell count [5]: 427 ×10^7 cfu/ml
- viable cell count [6]: 425 ×10^7 cfu/ml
- viable cell count [7]: 580 ×10^7 cfu/ml
- viable cell count [8]: 504 ×10^7 cfu/ml

Structure (SMILES): OC[C@H]1O[C@@H](O[C@H]2[C@H](O)[C@@H](O)C(O)O[C@@H]2CO)[C@H](O)[C@@H](O)[C@H]1O (stereo partly drawn) [Lactose]
- viable cell count [1]: 460 ×10^7 cfu/ml
- viable cell count [2]: 420 ×10^7 cfu/ml
- viable cell count [3]: 456 ×10^7 cfu/ml
- viable cell count [4]: 405 ×10^7 cfu/ml
- viable cell count [5]: 550 ×10^7 cfu/ml
- viable cell count [6]: 405 ×10^7 cfu/ml
- viable cell count [7]: 520 ×10^7 cfu/ml
- viable cell count [8]: 450 ×10^7 cfu/ml

Structure (SMILES): O=C(CO)[C@@H](O)[C@H](O)[C@H](O)CO [Fructose]
- viable cell count [1]: 434 ×10^7 cfu/ml
- viable cell count [2]: 522 ×10^7 cfu/ml
- viable cell count [3]: 405 ×10^7 cfu/ml
- viable cell count [4]: 408 ×10^7 cfu/ml
- viable cell count [5]: 452 ×10^7 cfu/ml
- viable cell count [6]: 486 ×10^7 cfu/ml
- viable cell count [7]: 550 ×10^7 cfu/ml
- viable cell count [8]: 402 ×10^7 cfu/ml

Source: patent publication US20230392111A1, “COMPOSITION FOR PROMOTING THE GROWTH OF LACTIC ACID BACTERIA COMPRISING GROWTH FACTORS” (priority 2020, published 2023)
